Laboratory results taken from patent US20230220047A1, “PEPTIDES FOR TREATMENT OF SEPSIS AND CANCER” (NORWEGIAN UNIVERSITY OF SCIENCE AND TECHNOLOGY (NTNU), priority 2020, published 2023).

Experiments:
[1] = tested on: INA-6 multiple myeloma cells; experiment: CellTiter-Glo cell viability assay, INA-6; format: cell-based, human; settings: INA-6, 12.5 μM, 48 h
Description: Minor effects on the proliferation of the IH-1 and RPMI 8226 cell lines are seen. Cells were seeded at the level shown (left-hand bar of each set) then incubated in medium containing water, 10 μM penetratin or 10 μM P7-A4-Pen for 48 hr (except for INA-6 cells, which were incubated with 12.5 μM penetratin or 12.5 μM P7-A4-Pen). The number of viable cells was detected based on quantitation of ATP by luminescent signal in correlation to a standard curve prepared for each cell line. Results are based on 3-5 biological replicates for each condition, error bars show standard deviation of mean.
Multiple myeloma cells JJN-3 (DSMZ (Germany) no. ACC 541), ANBL-6 (Cellosaurus accession number CVCL_5425, obtained from Dr Diane Jelinek, Mayo Clinic, Rochester, Minn.), INA-6 (Cellosaurus accession number CVCL_5209, obtained from Dr M. Gramatzki, University of Erlangen-Nurnberg, Erlangen, Germany), RPMI-8226 (ATCC CCL-155), and IH-1 (Cellosaurus accession number CVCL_WZ44, established from the pleural effusion of a myeloma patient by Myeloma research group, IKOM, NTNU, Trondheim, Norway) were grown in RPMI-1640 (Sigma-Aldrich Norway, Oslo, Norway) supplemented with 100 nM penicillin/streptomycin and 10% FCS, and for ANBL-6, IH-1 and INA-6 cells 2 ng/ml recombinant IL-6 (Gibco, Thermo Fisher Scientific, Waltham, Mass., USA). […]

primary human monocytes = experiment: Confocal analysis of E. coli particle uptake by primary human monocytes; format: cell-based; settings: 15 μM, level comparable with CytoD treated cells
Description: Cells were pre-incubated with Pen or P7-Pen peptides, followed by addition of Alexa Fluor 488-labeled bioparticles for the times indicated (15, 30 or 45 min). Fluorescent bacteria particles were counted by spot-detection in Bitplane Imaris imaging software and used to calculate the number of particles per cell. […] Pre-incubation with 3 μM cytochalasin D (CytoD, and inhibitor of actin polymerization) inhibited uptake of E. coli to a similar extent as P7-Pen.
THP-1 cells, THP-1^cherry cells or human PBMC were seeded in 24-well glass-bottom plates (MatTek Corporation), 125,000 cells/well. The THP-1 cells were differentiated into macrophages with 60 ng/ml PMA for 72 h and thereafter rested for 48 h, whereas the PBMC were used the day after isolation. The P7-penatratin peptide or control peptide was added to the cells 30 min before stimulation at 15 μM concentration. If used, 3 μM cytochalasin D (CytoD) was added simultaneously. […] A spot detection mode in the Bitplan Imaris software was used to define individual phagosomes and cells were counted manually. […] Fluorescence voxel intensity of TRAM^cherry at the phagosome is also presented. Statistical significance was calculated in GraphPad Prism by One-way ANOVA Kruskal-Wallis multiple comparison test. […]

STAT1 = experiment: Western blot of STAT1 phosphorylation in LPS-stimulated THP-1 cells; format: cell-based, human; settings: LPS
Description: Protein pellets were dissolved by heating protein pellets for 10 min at 95° C. in buffer containing 4 M urea, 1 SDS (Sigma) and NuPAGE® LDS Sample Buffer (4×) (Thermo Fisher Scientific). Otherwise, lysates were made using 1× RIPA lysis buffer (150 mM NaCl, 50 mM TrisHCl (pH 7.5), 1% Triton X100, 5 mM EDTA, protease inhibitors, phosphatase inhibitors). For Western blot analysis we used pre-cast protein gels NuPAGE™ Novex™ and iBlot Transfer Stacks iBlot Gel Transfer Device (Thermo Fisher Scientific). Proteins were transferred to the membrane by dry-blotting using iBlot® 2 NC Regular/Mini Stacks (Life Technologies) in the iBlot 2 Dry Blotting System (Life Technologies). After secondary antibody incubation, membranes were washed and incubated with HRP substrate solution (SuperSignal™ West Femto Maximum Sensitivity Substrate (Thermo Fisher Scientific)). Images were taken using Odyssey® Fc (LI-CORE). Quantification graphs were generated by the analysis of signal intensities for protein bands (protein of interest and endogenous loading control—β-tubulin from the same membrane) using Odyssey software (LI-CORE). Data were normalised to the expression levels of β-tubulin and presented as a relative fold change to the control sample.

THP-1 cells = experiment: LDH cytotoxicity assay in THP-1 cells; settings: 1 h pre-treatment
Description: For every assay, separate wells were seeded for the required controls (Spontaneous LDH Release Controls and Maximum LDH Release Control) with the same amount of cells as used for peptide treatments. All supernatants were analysed in triplicate with the average value of technical replicates taken into calculations.
THP-1 cells were pre-treated with increasing concentrations of P7-Arg11 and control peptide Arg11 for 1 h (FIG. 3).

Ac-ITVAASVTLTGRQIKIWFQNRRMKWKK-NH2 [Peptide P7-A4-Pen]
cell proliferation [1]: strongly inhibited cell proliferation

Ac-ITVYASVTLTGRQIKIWFQNRRMKWKK-NH2 [Peptide P7-Pen]
uptake of E. coli particles (primary human monocytes): inhibited

Ac-ITVYASVTLTGRRRRRRRRRRR-NH2 [Peptide P7-Arg11]
phosphorylation of STAT1 (STAT1; 10 μM): strongly inhibited | phosphorylation of STAT1 (STAT1; 20 μM): fully abrogated | toxicity (LDH assay) (THP-1 cells; 5 μM and 10 μM): essentially non-toxic | toxicity (LDH assay) (THP-1 cells; 20 μM): increased toxicity
